From patent US20090074895A1, “COMPOSITION AND USES THEREOF” (VANADIS BIOSCIENCE LTD, priority 2005, published 2009) come the findings set out here.

Entries after “also recorded” stand apart in the source; their conditions may differ.

Common to all, as to type: in vivo, rat
The subject of assay [1] is diabetic rats. Nature of the assay: Serum cholesterol concentrations after 7 day oral treatment of diabetic rats (lovastatin, MKH, combination). Particulars: for HDL cholesterol / LDL cholesterol / LDL/HDL ratio / Total cholesterol: 7 day oral treatment, lovastatin 20 mg/kg/day, MKH 2 mg/kg/day, n = 8; for Change in total cholesterol (in words): 7 days oral treatment.
Assay [2] concerns normoglycaemic Wistar rats. Briefly: Blood glucose and oral glucose tolerance test (OGTT) after 5 days oral treatment, normoglycaemic rats. Particulars: n = 8; for Glucose blood concentration, After OGTT: 30 minutes after OGTT (glucose 4 g/kg orally) after the 5th dose; for Glucose blood concentration, After treatment (one dose daily for 5 days): MKH 4 mg/kg, stevioside 20 mg/kg orally per day, before OGTT; for Glucose blood concentration, Before treatment: baseline of the group before treatment. The protocol: (§1) In this study white, adult male Wistar rats with average weights between 200 to 300 grams were used. During the study, the animals had free access to food and water and were exposed to changes of dark and light every 12 hours. Access to the food was restricted 12 hours before measurement of glucose blood level with free access to water.
(§2) The experiment was performed on a normoglycaemic group (Group 1, 32 rats, 8 per treatment) and diabetic rats (Group 2, 32 rats, 8 per treatment). For the diabetic rat experiments diabetes was induced with intraperitoneal injection of alloxan 100 mg/kg. Alloxan is very well verified diabetogenic substance for inducing diabetes in rats and other animal species (rabbit, dog, mice et cetera). See, for example, McLetchie, J.R. Coll Physicians Edinb, 32: 134-142, 2002; Lenzen & Panten, Diabetologia, 31: 337-342, 1988; Shaw et al., Lancet, 11: 384-386, 1943; Goldner & Gomori, Endocrinology, 35: 241-268, 1943.
(§3) 1). Saline solution, 1 ml/kg, per orally, daily for 5 days (control group); 2). Stevioside, 20 mg/kg, orally, daily for 5 days; 3). Sodium salt of 3α,7α-dihydroxy-12-oxo-5β-cholanate (monoketocholic acid-MKC), 4 mg/kg, orally, daily for 5 days; and 4). 1 ml/kg of the composition described in Example 1, orally, daily for 5 days.
(§4) 15 minutes after the 5th dose, the animals were exposed to an oral glucose tolerance test (OGTT) using 4 g/kg, orally. Glucose blood concentrations were measured before the treatment, after the 5th dose, before OGTT, and 30 minutes after OGTT. Then the animals were anaesthetised with urethane injected intraperitoneally, 750 mg/kg, and blood samples for further biochemical analyses were taken by cardiopunction.

In assay [3] the test system is diabetic rats. Briefly: C peptide serum concentration, diabetic rats. Particulars: for C peptide serum concentration: doses daily for 5 days orally, n = 8. The protocol: as §1, §2, §3
(§5) In the diabetic rat the criterion for successful diabetes induction was blood glucose greater than 20 mmol/L on the third day after the last alloxan dose after 3 hours of fasting with free access to water.
15 minutes after the 5th dose, the animals were exposed to an oral glucose tolerance test (OGTT) using 4 g/kg, orally. Glucose blood concentrations were measured before the treatment, after the 5th dose, before OGTT, and 30 minutes after OGTT. […]
All biochemical analyses of serum were done by standard procedures, as recommended by the International Federation for Clinical Chemistry (IFCC), on automatic spectrophotometer LISA 300 plus with International Quality Control. The following were measured in serum: […]

For assay [4], the system named is diabetic rats. Briefly: Serum cholesterol and lipid profile after 5 days treatment, diabetic rats. Particulars: for HDL cholesterol serum concentration / LDL cholesterol serum concentration / Serum total cholesterol concentration: 5 days treatment orally; for HDL cholesterol serum concentration / LDL cholesterol serum concentration / Serum total cholesterol concentration / LDL:HDL Ratio (ratios of means): n = 8; for LDL:HDL Ratio (ratios of means): after 5 days treatment. The protocol: as §2, §3, §4
(§6) All biochemical analyses of serum were done by standard procedures, as recommended by the International Federation for Clinical Chemistry (IFCC), on automatic spectrophotometer LISA 300 plus with International Quality Control. The following were measured in serum:
(§7) 1). Triglycerides concentration (GPO-PAP kit obtained from Boehringer Mannheim GmbH (Mannheim, Germany) in accordance with the manufacturers instructions) 2). Total low density lipoprotein (LDL) and high density lipoprotein (HDL) 3). Cholesterol concentration (CHOD-PAP kit obtained from Boehringer Mannheim GmbH (Mannheim, Germany) in accordance with the manufacturers instructions); and 4). C-peptide concentration.
(§8) The composition from Example 1 was trialled to see the effect on cholesterol levels and on serum lipid profiles. Generally the desired outcome was a decrease in low density lipoprotein (LDL), with no concomitant decrease in high density lipoprotein (HDL). It was also hypothesised that there would be a compatibility with glycaemic effects shown in Example 2.
(§9) The experimental procedures were essentially those described in Example 2.

Assay [5] relates to normoglycaemic rats. Nature of the assay: Serum cholesterol and lipid profile after 5 days treatment, normoglycaemic rats. Particulars: for Change in HDL serum cholesterol concentration (in words) / Change in LDL serum cholesterol concentration versus control (in words) / Change in total cholesterol serum concentration (in words): normoglycaemic (non-diabetic) rats, 5 days treatment; for HDL serum cholesterol concentration / LDL serum cholesterol concentration / Serum total cholesterol concentration / LDL:HDL Ratio (ratios of means): normoglycaemic rats, n = 8; for HDL serum cholesterol concentration / LDL serum cholesterol concentration / Serum total cholesterol concentration: 5 days treatment orally; for LDL:HDL Ratio (ratios of means): after 5 days treatment. The protocol: as §3, §4, §6, §7, §8, §9

Assay [6] concerns normoglycaemic rats. Briefly: C peptide serum concentration, normoglycaemic rats. Particulars: for Effect on C peptide levels (in words): non-diabetic rats, 5 days treatment; for C peptide serum concentration: normoglycaemic rats, doses daily for 5 days orally, n = 8. The procedure: as §1, §2, §3, §4, §6, §7
The subject of another assay is diabetic Wistar rats. Nature of the assay: Blood glucose and OGTT after 5 days oral treatment, alloxan-diabetic rats. Particulars: for Glucose blood concentration, After OGTT / Glucose blood concentration, After treatment (one dose daily for 5 days) / Glucose blood concentration, Before treatment: diabetic Wistar rats (alloxan), n = 8; for Glucose blood concentration, After OGTT: 30 minutes after OGTT (glucose 4 g/kg orally) after the 5th dose; for Glucose blood concentration, After treatment (one dose daily for 5 days): MKH 4 mg/kg, stevioside 20 mg/kg orally per day, before OGTT; for Glucose blood concentration, Before treatment: baseline of the group before treatment; for Effect on glucose levels under increased glucose loading during the OGTT (in words): substances given alone, rat group not given. The procedure: as §1, §2, §3, §5, §4

The mark [7] stands for this setting: 7 days treatment, MKH 2 mg/kg, lovastatin 20 mg/kg orally.

Consider `CC[C@H](C)C(=O)O[C@H]1C[C@@H](C)C=C2C=C[C@H](C)[C@H](CC[C@@H]3C[C@@H](O)CC(=O)O3)[C@H]21` [Lovastatin, reference compound], for which, in the assay with diabetic rats [1], the HDL cholesterol was 0.74 ± 0.16 mmol/L, the LDL cholesterol came to 0.09 ± 0.17 mmol/L, the LDL/HDL ratio was 0.15 ± 0.29 and the Total cholesterol turned out to be 1.19 ± 0.06 mmol/L. Also, in the assay on diabetic rats [1], the “Change in total cholesterol (in words)” value is “reduced total cholesterol by a similar amount”. In addition, the “Change in HDL levels (in words)” value with diabetic rats [1] (setting [7]) is “reduced HDLs significantly”.
As for `C[C@H](CCC(=O)[O-])[C@H]1CC[C@H]2[C@@H]3[C@H](O)C[C@@H]4C[C@H](O)CC[C@]4(C)[C@H]3CC(=O)[C@]12C.[Na+]` [MKH, Sodium salt of 3α,7α-dihydroxy-12-oxo-5β-cholanate], in assay [2], the “Glucose blood concentration, After OGTT” value is reported as 8.52 ± 3.19 mmol/L; the “Glucose blood concentration, After treatment (one dose daily for 5 days)” value is 5.42 ± 1.15 mmol/L; the “Glucose blood concentration, Before treatment” value is 6.82 ± 2.15 mmol/L. In addition, in the assay with diabetic rats [3], the “C peptide serum concentration” value stood at 178.38 ± 34.25 pmol/L. Moreover, in the assay on diabetic rats [4] (5 days treatment), the “Change in LDL cholesterol levels (in words)” value was “decreases in LDL levels and while these were not statistically significant”; the “Change in LDL:HDL ratio (in words)” value was “slight increase”; the “Change in total cholesterol serum concentration (in words)” value is listed as “no significant changes”. For the same molecule, in the assay on diabetic rats [4], the “HDL cholesterol serum concentration” value is recorded as 0.50 ± 0.12 !! mmol/l, the “LDL cholesterol serum concentration” value worked out at 0.56 ± 0.17 mmol/L, the “Serum total cholesterol concentration” value stood at 1.03 ± 0.26 mmol/L and the “LDL:HDL Ratio (ratios of means)” value is listed as 1.12. Further, the “Change in HDL levels (in words)” value with diabetic rats [4] (5 days treatment, MKH 4 mg/kg) is reported as “A decrease was observed”. In the assay on diabetic rats [1], the HDL cholesterol was 0.89 ± 0.14 mmol/L, the LDL cholesterol is 0.03 ± 0.04 mmol/L, the LDL/HDL ratio came out at 0.04 ± 0.04 and the Total cholesterol is 1.21 ± 0.14 mmol/L. Moreover, the “Change in total cholesterol (in words)” value in the assay with diabetic rats [1] was “reduced total cholesterol by a similar amount”. In the assay on diabetic rats [1] (setting [7]), the “Change in HDL levels (in words)” value is recorded as “this effect was not observed; also recorded: did not do so” and the “Change in LDL levels (in words)” value is listed as “very highly significant decrease; also recorded: significantly greater than that achieved by Lovastatin”. Moreover, the “Change in LDL:HDL ratio (in words)” value in the assay on diabetic rats [1] (Day 7) was “significant decrease”. In the assay with normoglycaemic rats [5], the “Change in HDL serum cholesterol concentration (in words)” value was “no significant changes”, the “Change in LDL serum cholesterol concentration versus control (in words)” value is listed as “significantly decreased (one third of control values)”, the “Change in total cholesterol serum concentration (in words)” value is recorded as “no significant changes” and the “HDL serum cholesterol concentration” value amounted to 0.73 ± 0.20 mmol/L. For the same molecule, in the assay with normoglycaemic rats [5], the “LDL serum cholesterol concentration” value is 0.11 ± 0.04 mmol/L, the “Serum total cholesterol concentration” value turned out to be 0.99 ± 0.30 mmol/L and the “LDL:HDL Ratio (ratios of means)” value amounted to 0.01. Besides, in the assay on normoglycaemic rats [6], the “Effect on C peptide levels (in words)” value is “Neither stevioside or 3α,7α-dihydroxy-12-oxo-5β-cholanate alone had statistically significant effects” and the “C peptide serum concentration” value stood at 230.87 ± 80.64 pmol/L. In addition, in the assay with diabetic Wistar rats, the “Glucose blood concentration, After OGTT” value was 27.05 ± 1.17 mmol/L; the “Glucose blood concentration, After treatment (one dose daily for 5 days)” value stood at 22.34 ± 1.15 x mmol/L; the “Glucose blood concentration, Before treatment” value is on record as 24.73 ± 2.15 mmol/L; the “Effect on glucose levels under increased glucose loading during the OGTT (in words)” value is reported as “beneficial effects”. In addition, the “Effect on glucose levels before and after the OGTT (in words)” value with diabetic Wistar rats (diabetic rats, 5 days treatment) is “significant decrease”.
With `C=C1C[C@@]23CC[C@H]4[C@@](C)(CCC[C@@]4(C)C(=O)O[C@@H]4O[C@H](CO)[C@@H](O)[C@H](O)[C@H]4O)[C@@H]2CC[C@]1(O[C@@H]1O[C@H](CO)[C@@H](O)[C@H](O)[C@H]1O[C@@H]1O[C@H](CO)[C@@H](O)[C@H](O)[C@H]1O)C3` [Stevioside], in assay [2], the “Glucose blood concentration, After OGTT” value was determined as 11.4 ± 2.9 mmol/L; the “Glucose blood concentration, After treatment (one dose daily for 5 days)” value amounted to 5.47 ± 0.67 mmol/L; the “Glucose blood concentration, Before treatment” value amounted to 6.95 ± 0.99 mmol/L. In addition, the “Effect on C-peptide (in words)” value in the assay on diabetic rats [3] (5 days treatment) is “significant increases”. The “C peptide serum concentration” value in the assay on diabetic rats [3] came to 230.12 ± 28.45 pmol/L. For the same molecule, in the assay with diabetic rats [4] (5 days treatment), the “Change in LDL cholesterol levels (in words)” value is given as “highly significant decrease” and the “Change in total cholesterol serum concentration (in words)” value was “no significant changes”. For the same molecule, in the assay with diabetic rats [4], the “HDL cholesterol serum concentration” value is 0.85 ± 0.20 mmol/L, the “LDL cholesterol serum concentration” value came to 0.42 ± 0.09 mmol/L, the “Serum total cholesterol concentration” value turned out to be 1.39 ± 0.31 mmol/L and the “LDL:HDL Ratio (ratios of means)” value was determined as 0.49. Moreover, in the assay on normoglycaemic rats [5], the “Change in HDL serum cholesterol concentration (in words)” value was “no significant changes”, the “Change in LDL serum cholesterol concentration versus control (in words)” value is “significantly decreased (one third of control values)”, the “Change in total cholesterol serum concentration (in words)” value is listed as “no significant changes” and the “HDL serum cholesterol concentration” value was 0.78 ± 0.18 mmol/L. Further, in the assay on normoglycaemic rats [5], the “LDL serum cholesterol concentration” value was 0.1 ± 0.08 mmol/L, the “Serum total cholesterol concentration” value stood at 1.1 ± 0.30 mmol/L and the “LDL:HDL Ratio (ratios of means)” value came to 0.13. Further, in the assay on normoglycaemic rats [6], the “Effect on C peptide levels (in words)” value was “Neither stevioside or 3α,7α-dihydroxy-12-oxo-5β-cholanate alone had statistically significant effects” and the “C peptide serum concentration” value came to 294 ± 93.2 pmol/L. Besides, in the assay on diabetic Wistar rats, the “Glucose blood concentration, After OGTT” value is 28.03 ± 1.08 mmol/L; the “Glucose blood concentration, After treatment (one dose daily for 5 days)” value was 22.53 ± 1.07 mmol/L; the “Glucose blood concentration, Before treatment” value came to 25.14 ± 1.87 mmol/L; the “Effect on glucose levels under increased glucose loading during the OGTT (in words)” value is recorded as “beneficial effects”.
